Measurements: PubChem BioAssay (NCI)
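In this assay, cells in 96-well plates receive the compound at five concentrations for 48 hours. Endpoints are linearly interpolated between the surrounding concentrations. GI50 is the concentration that inhibits growth by half. TGI marks complete inhibition of growth.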

Assays:
Assay in all cases: NCI tumour cell line growth inhibition, 48 h
RXF-631 renal = tested on: RXF-631 renal
DMS 114 small cell lung = tested on: DMS 114 small cell lung
XF 498 CNS = tested on: XF 498 CNS
DMS 273 small cell lung = tested on: DMS 273 small cell lung
HOP-18 NSCLC = tested on: HOP-18 NSCLC
DLD-1 colon = tested on: DLD-1 colon
MDA-N = tested on: MDA-N
P388 leukemia = tested on: P388 leukemia
SN12K1 renal = tested on: SN12K1 renal
P388/ADR leukemia = tested on: P388/ADR leukemia

| Structure (SMILES) | TGI (RXF-631 renal) [µM] | TGI (DMS 114 small cell lung) [µM] | TGI (XF 498 CNS) [µM] | TGI (DMS 273 small cell lung) [µM] | TGI (HOP-18 NSCLC) [µM] | TGI (DLD-1 colon) [µM] | further results |
| --- | --- | --- | --- | --- | --- | --- | --- |
| CC(C)Cc1ccc(C(C)/C=C2\CCC(CN3CCCC3)C2=O)cc1 (stereo unspecified) | 49.9 | 12.2 | 22 | 14.5 | 33.4 | 6.67 |  |
| c1ccc2c(c1)nnn2CNc1ccc(N2CCOCC2)cc1 |  | > 100 | > 100 | > 100 | > 100 | > 100 |  |
| Cc1[nH]c2ccccc2c1C1CC(=O)NC1=O (stereo unspecified) |  | > 100 |  | > 100 |  | > 100 |  |
| N#Cc1ccc(-c2nc3ccc(Cl)cc3[nH]2)cc1 |  |  |  |  |  |  | TGI (MDA-N): > 100 µM |
| S=P(c1ccccc1)(c1ccccc1)C1(C2(P(=S)(c3ccccc3)c3ccccc3)CC2)CC1 | > 100 | > 100 | > 100 | > 100 |  | > 100 |  |
| O=C1NC(=O)C(=O)C(c2nc3ccccc3s2)C1=O |  | > 100 | > 100 | > 100 | > 100 | > 100 |  |
| CCC(O)(c1ccc(OC)cc1)C(c1ccc(OCc2ccccc2)cc1)c1ccc(OCc2ccccc2)cc1 (stereo unspecified) | > 100 | > 100 | > 100 | > 100 |  | > 100 |  |
| CC(Oc1ccc(OCC2CCCCC2)cc1)C(=O)O (stereo unspecified) |  | > 100 | > 100 | > 100 | > 100 | > 100 |  |
| O=C(N/C(=C\c1ccc([N+](=O)[O-])cc1)c1nc2ccc(Cl)cc2[nH]1)c1ccccc1 |  | > 100 | 46.5 |  |  | 31.3 |  |
| NC1=NC(c2ccccc2)CC(c2cc(Cl)cc(Br)c2O)=N1 (stereo unspecified) | 39.8 | 27.1 | 33.9 | 23.2 | 37.4 | 25.8 | TGI (P388 leukemia): > 20.7 µM; TGI (SN12K1 renal): 28.3 µM; TGI (P388/ADR leukemia): > 27.8 µM |
| CCOC(=O)/C(C#N)=C\C=C1/C=CNC2=NCCN21 |  | > 100 | > 100 | > 100 | > 100 | > 100 |  |
| Cc1ccc(C(=O)CCC2C(=O)CC(C)(C)CC2=O)cc1 |  |  |  |  |  |  | TGI (MDA-N): > 100 µM |
| CC(=O)O[C@H]1CCC2[C@@H]3CCC4Nc5c(cnn5-c5ccccc5)C[C@]4(C)C3CC[C@@]21C (stereo partly specified) | 42.2 | 58.3 | 18.8 | 14.4 | 86.5 | > 100 |  |
| O=C(COc1ccc(Cl)cc1)N1N=C(c2ccc([N+](=O)[O-])o2)CC1(O)c1ccccc1 (stereo unspecified) | 24.9 |  | 22.3 | 18.6 |  | > 100 |  |
| C[C@@H](NC1CCC[C@@H]1O)c1ccccc1 (stereo partly specified) |  | > 100 | > 100 | > 100 | > 100 | > 100 |  |
| COC1OC(CBr)C(OC(c2ccccc2)(c2ccccc2)c2ccccc2)C(OC(c2ccccc2)(c2ccccc2)c2ccccc2)C1OC(c1ccccc1)(c1ccccc1)c1ccccc1 (stereo unspecified) |  |  |  |  |  |  | TGI (MDA-N): > 100 µM |
| CC1=C(/C=C/C2=CC(=C\C(=O)O)/CC(C3=C(C)CCCC3(C)C)C2)C(C)(C)CCC1 (stereo unspecified) | 24.7 | 23 | 27.4 | 27.7 | 27 | 24.5 |  |
| O=C(O)CCSC(=O)Nc1cccc([N+](=O)[O-])c1 |  | > 100 |  | > 100 |  | > 100 |  |
| O=C(O)CN(c1ccccc1)S(=O)(=O)c1ccc(Cl)cc1 | > 100 |  |  | > 100 | > 100 | > 100 |  |
| COC1CC2C=CC3C4OC2(/C(C)=C/C(C)C(C(C)O)OC1=O)C3C(O)C(C)C4OC(=O)c1ccc[nH]1 (stereo unspecified) |  |  |  |  |  |  | TGI (MDA-N): > 100 µM |
| CN(C)Cc1cccc(CN(C)C)[c]1[Sn]([Br])([c]1ccccc1)[c]1ccccc1 |  |  |  |  |  |  | GI50 (MDA-N): 16.6 µM; TGI (MDA-N): 38.8 µM |
| CCCC1C(=O)C(CC)Cc2c(OC)ccc(OC)c21 (stereo unspecified) | > 100 |  | > 100 | > 100 |  | > 100 |  |

| Structure (SMILES) | TGI (RXF-631 renal) [µM] | TGI (DMS 114 small cell lung) [µM] | TGI (XF 498 CNS) [µM] | TGI (DMS 273 small cell lung) [µM] | TGI (HOP-18 NSCLC) [µM] | TGI (DLD-1 colon) [µM] | further results |
| --- | --- | --- | --- | --- | --- | --- | --- |
| N#CC(C(=O)CCC(=O)Nc1ccc(Cl)cc1)c1ccccc1Cl (stereo unspecified) | > 100 | > 100 | > 100 | > 100 |  | > 100 |  |
| CCN(CC)C(=O)CNC(=O)OC(C)(C)C |  | > 100 |  | > 100 |  | > 100 |  |
| CC1OC(O[C@H]2/C=C/C=C/C=C/C=C/C=C/C=C/C=C/[C@H](C)[C@@H](O)[C@@H](C)[C@H](C)OC(=O)C[C@H](O)C[C@H](O)CC[C@@H](O)[C@H](O)C[C@H](O)C[C@]3(O)C[C@H](O)[C@@H](C(=O)O)[C@H](C2)O3)C(O)C(N)C1O (stereo partly specified) |  |  |  |  |  |  | TGI (MDA-N): 24.4 µM |
| CC(C(=O)c1ccccc1)C1(O)C(=O)Nc2ccccc21 (stereo unspecified) | > 100 | > 100 |  | > 100 | > 100 | > 100 |  |
| C[Si](C)(C)/C=C\CCCN1C(=O)CCC1=O | > 100 | > 100 | > 100 |  |  |  |  |
| COc1ccc(C(=O)C(Br)C(Br)C(=O)O)cc1 (stereo unspecified) |  |  |  |  |  |  | TGI (MDA-N): > 100 µM |
| O=C(c1cc2c(C(F)(F)F)onc2c2ccccc12)C(F)(F)F | 80.1 | 10.9 |  | 16.1 | > 100 | > 100 |  |
| COc1ccc(-c2nc(N)c3ncn(C4OC(CO)C(O)C4O)c3n2)cc1 (stereo unspecified) |  |  |  |  |  |  | TGI (MDA-N): > 100 µM |
| O=C1CC2C(=O)C1C(C(=O)O)C2C(=O)O (stereo unspecified) |  |  |  |  |  |  | TGI (MDA-N): > 100 µM |
| CC(=O)Nc1ccc2oc(=O)c3ccccc3c2c1 |  |  |  |  |  |  | TGI (MDA-N): > 100 µM |
| NCC1OC(n2cnc3c(=O)[nH]c(N)nc32)C(O)C1O (stereo unspecified) |  |  |  |  |  |  | TGI (MDA-N): > 100 µM |
| CCOC(=O)CNC1C(NC(C)=O)C(OC)OC2COC(c3ccccc3)OC21 (stereo unspecified) | > 100 | > 100 |  | > 100 | > 100 |  |  |
| NNC(=O)CCC(=O)Nc1ccc(Cl)cc1Cl | > 100 | > 100 | > 100 | > 100 |  | > 100 |  |
| COc1cc2ccnc3c2c(c1OC)CC1CC(O)C(OC)CC31 (stereo unspecified) |  | > 100 | > 100 | > 100 | > 100 | > 100 |  |
| COc1cc([C@@H]2c3cc4c(cc3[C@@H](NCc3ccc(C#N)cc3)C3COC(=O)[C@@H]32)OCO4)cc(OC)c1O (stereo partly specified) |  | 4.98 | 2.85 | 2.49 | > 100 | 5.33 |  |
| CC([C@H]1CCC2C3CCC4CC5(CC[C@]4(C)C3CC[C@@]21C)c1ccccc1C(=O)N5C)N(C)C (stereo partly specified) |  | > 100 |  | 75.4 | > 100 | > 100 |  |
| CCCCCCCC(=O)OCC1OC(n2cc(F)c(=O)[nH]c2=O)C(NC(=O)OCc2ccccc2)C(OC(=O)CCCCCCC)C1O (stereo unspecified) |  | > 100 |  | 54.7 |  |  |  |
| CC1Cc2c(N)nc(N3CCOCC3)nc2NC1=O (stereo unspecified) |  | > 100 |  | > 100 | > 100 | > 100 |  |
| C[C@]12CC(C#N)C(=O)C(O)=C1CC[C@@H]1C2CC[C@@]2(C)C1CC[C@@H]2O (stereo partly specified) |  | > 100 | > 100 | > 100 |  | > 100 |  |
| CN(C1=NS(=O)(=O)N=C(N(C)c2ccccc2)O1)c1ccccc1 |  |  |  |  |  |  | TGI (MDA-N): 32.6 µM |
| CC(C)c1cccc(C(C)C)c1N=C(N)C#N | > 100 | > 59.2 | > 100 | > 56.9 | > 100 | > 65.6 |  |
